Measurements reported in patent publication US10543159B2, “Hair papilla cell activator” (Ezaki Glico Co., Ltd., priority 2014, dated 2020).
Counter-ions that a name gives are not always drawn.

Assays:
FGF7 and VEGF = assay: Gene expression with POs-Ca (R) combined with general hair-restoration components (Example 8); format: cell-based, human; conditions: 0.25% POs-Ca (R) with 0.25% glycyrrhizinate dipotassium, 1% tocopherol acetate, 0.125% pantothenyl ethyl ether or 1% Swertia japonica; two wells
Method: (1) Glycyrrhizinate dipotassium (for biochemical use) from Wako Pure Chemical Industries, Ltd. was diluted to 20% (w/v) with water, and sterilized by being passed through a 0.20-μm filter (Minisart, surfactant-free cellulose acetate, Sartorius Stedim Biotech, US) with a 10-ml syringe (Terumo Corporation), and the resulting product was diluted with sterilized water, as required, and used.
(2) (±)-α-Tocopherol acetate (first grade) from Wako Pure Chemical Industries, Ltd., as tocopherol acetate, and DL-pantothenyl ethyl ether from Santa Cruz Biotechnology, as pantothenyl ethyl ether, were each diluted 5-fold to 20% (v/v) with ethanol, and diluted with sterilized water, as required, and used.
(3) A water-ethanol solution of Swertia japonica extract from Senken Co., Ltd., as a 100% (v/v) extract, was diluted with sterilized water, as required, and used.
(1) 500 μl of a special medium in which 2×10^4 cells/ml of follicle dermal papilla cells were suspended was dispensed into a type I collagen-coated 24-well cell culture plate (Corning), and cultured at a cell density of 5×10^3 cells/cm^2 at 37° C. for 96 hours, until the cells reached subconfluent. […]
(3) Two wells were used for culturing each of the DMEM solutions containing (a) to (i). The expression levels of FGF7 and VEGF were analyzed as in (3) to (8) of Example 3, and the average values of the two wells were compared.

VEGF [1] = assay: Expression rate of VEGF among acidic saccharide salts, quantitative PCR (Example 6); format: cell-based, human; conditions: Example 6: solutions (b)-(h) of b288 mixed 1:9 with DMEM, GAPDH reference, mean of 4 PCR assays
Method: (§1) (1) 500 μl of a special medium in which 2×10^4 cells/ml of follicle dermal papilla cells were suspended was dispensed into a type I collagen-coated 24-well cell culture plate (Corning), and cultured at a cell density of 5×10^3 cells/cm^2 at 37° C. for 72 hours. […] Oji Cornstarch Co., Ltd.), (f) a 2.5% (w/v) aqueous solution of a phosphorylated oligosaccharide magnesium salt (POs-Mg; […] (3) Each of the solutions (a) to (c) was mixed with DMEM high glucose (Sigma, USA) at a ratio of 1:9. (4) Following the procedures (4) to (6) in Example 2, mRNA was extracted from the cells, cDNA was prepared, and then the expression levels of the VEGF, FGF-7, and GAPDH genes were quantified by quantitative PCR. (7) Using GAPDH as a reference gene, a comparative analysis of expression levels was performed with the analysis software (Bio-Rad CFX Manager 3.0) included in CFX96Touch. The expression levels were calculated under the default conditions of the software.

FGF-7 [2] = assay: Expression rate of FGF-7 among acidic saccharide salts, quantitative PCR (Example 6); format: cell-based, human; conditions: Example 6: solutions (b)-(h) of b288 mixed 1:9 with DMEM, GAPDH reference, mean of 4 PCR assays
Method: as §1

[3] = system: human follicle dermal papilla cells; assay: Follicle dermal papilla cell proliferation, Cell Counting Kit-F cell count (Example 2); format: cell-based
Method: A strain (Lot. 3092504.12) sold by PromoCell (Germany) was used as human follicle dermal papilla cells. The cells were cultured in a CO2 incubator at 37° C., using a special medium for follicle dermal papilla cells (PromoCell), unless otherwise indicated. Cell subculturing was performed as follows: cells were seeded at 5000 to 10000 cells/cm^2 in an uncoated dish, and when the cells reached subconfluent, they were treated with trypsin-EDTA (0.03%) and detached, and then re-seeded. […] The medium was replaced about once every 3 days.
1. The procedures (1) and (3) to (5) in Example 1 were performed in the same manner as described above. Solutions of the compositions shown in the following table were prepared in a concentration series starting from a 10% (w/v) aqueous solution of POs-Ca (R), a 12.9% (w/v) aqueous solution of G1P-Ca, a 1.84% (w/v) aqueous solution of CaCl2.2H2O, or a 10% (w/v) aqueous solution of POs-Na.
2. In place of the conditions ((6), (7) and (8)) in Example 1, Cell Counting Kit-F (Dojindo Molecular Technologies, Inc.) was added to each well in accordance with the manual, and the number of cells was counted.

Wnt5a = assay: Quantitative PCR gene expression in follicle dermal papilla cells: Wnt5a; format: cell-based, human; conditions: 37° C., 5 hours
Method: (§2) (1) 500 μl of a special medium in which 4×10^4 cells/ml of follicle dermal papilla cells were suspended was dispensed into a type I collagen-coated 24-well cell culture plate (Corning), and cultured at a cell density of 1.0×10^4 cells/cm^2 at 37° C. for 42 hours. […] Each of the solutions (a) to (c) was mixed with DMEM high glucose (Sigma, USA) at a ratio of 1:9.
(§3) (3) The medium was aspirated from each well obtained in (1), the well was washed by adding 1 ml of 1×PBS (137 mM NaCl, 8.1 mM Na2HPO4, 2.68 mM KCl, 1.47 mM KH2PO4 (pH 7.4); Wako Pure Chemical Industries, Ltd.), and aspirating the PBS, 500 μl of DMEM high glucose was added, and the cells were incubated in a CO2 incubator at 37° C. for 5 hours. […]
(4) The medium was removed from each well, and then mRNA was extracted using CellAmp Direct RNA Prep Kit for RT-PCR (Takara). The method was performed in accordance with the manual for the kit.
(5) 8 μl of the extracted mRNA solution (200 μl for each well) was used, and cDNA was obtained by the reverse transcription reaction at a scale of 40 μl, using PrimeScript RT Master Mix (Takara). The reaction conditions were as set forth in the manual for the kit.
(6) 0.5 μl of each of cDNA solutions diluted 2-fold with water, 1 μl of a solution containing 4 μM of each of primers 1 and 2 for each of the genes shown in Table 2, 5 μl of SYBR Premix Ex Taq II (Takara), and 3.5 μl of water were added, and quantitative PCR was performed on each of the genes. Using CFX96 Touch (BIO-RAD, USA), denaturation treatment at 95° C. for 30 seconds was performed, and then a two-step cycle at 95° C. for 5 seconds and at 62° C. for 20 seconds was performed for 65 cycles. Fluorescence intensity after each cycle was measured.
(§4) (7) Using PGK1 and GAPDH as reference genes, a comparative analysis of expression levels was performed with the analysis software (Bio-Rad CFX Manager 3.0) included in CFX96Touch. Relative expression levels were calculated under the default conditions of the software. […]

FGF-7 [4] = assay: Quantitative PCR gene expression in follicle dermal papilla cells: FGF-7; format: cell-based, human; conditions: 37° C., 5 hours
Method: as §2, §3
(6) 0.5 μl of each of cDNA solutions diluted 2-fold with water, 1 μl of a solution containing 4 μM of each of primers 1 and 2 for each of the genes shown in Table 2, 5 μl of SYBR Premix Ex Taq II (Takara), and 3.5 μl of water were added, and quantitative PCR was performed on each of the genes. […] Fluorescence intensity after each cycle was measured.
as §4

VEGF [5] = assay: Quantitative PCR gene expression in follicle dermal papilla cells: VEGF; format: cell-based, human; conditions: Example 5: 0.25% POs-Ca (R), 50 μM adenosine or both; DMEM serum-free, 37° C., 5 hours; Dunnett p<0.05, n=8
[6] = Example 5: 0.25% POs-Ca (R), 50 μM adenosine or both, DMEM serum-free, Dunnett p<0.05, n=8
[7] = Example 7: 0.25% POs-Mg or MgCl2.6H2O with equivalent magnesium, DMEM, Dunnett p<0.05

Which “synergistic effect with POs-Ca (R) on expression of FGF7 and VEGF” value (FGF7 and VEGF) does the source give for `CC(=O)Oc1c(C)c(C)c2c(c1C)CCC(C)(CCC[C@H](C)CCC[C@H](C)CCCC(C)C)O2` (mixture of isomers) [tocopherol acetate, (±)-α-Tocopherol acetate] here?
Its value is “None”.

Which results are given for `O=P(O)(O)OC1O[C@H](CO)[C@@H](O)[C@H](O)[C@H]1O` (some centres unmarked) [G1P-Ca, glucose-1-phosphate calcium salt]?
VEGF, relative values of the expression levels based on the control as 1 (VEGF [1]; calcium salt): induced an increase; VEGF, relative values of the expression levels based on the control as 1 (VEGF [1]; listed as G1P—Ca, calcium salt): 1.46; FGF7, relative values of the expression levels based on the control as 1 (FGF-7 [2]; calcium salt): induced an increase; FGF7, relative values of the expression levels based on the control as 1 (FGF-7 [2]; listed as G1P—Ca, calcium salt): 1.10; working concentrations having the effect of proliferating follicle dermal papilla cells ([3]; FIG. 1B-1D legends, Dunnett p<0.05): over 0.3%; number of cells compared to that without addition ([3]; concentration series of Table 1A, 3 days): increased at all concentrations

For `O=C([O-])[C@H](O)[C@@H](O)[C@H](O[C@@H]1O[C@H](CO)[C@H](O)[C@H](O)[C@H]1O)[C@H](O)CO.O=C([O-])[C@H](O)[C@@H](O)[C@H](O[C@@H]1O[C@H](CO)[C@H](O)[C@H](O)[C@H]1O)[C@H](O)CO.[Ca+2]` [Lactobio-Ca, calcium lactobionate], which “VEGF, relative values of the expression levels based on the control as 1” value (VEGF [1]) is on record?
The value was 1.48.

What about the “VEGF, relative values of the expression levels based on the control as 1” value (VEGF [1]; listed as calcium lactobionate) of the same molecule?
Its value is “induced an increase”.

What about the “FGF7, relative values of the expression levels based on the control as 1” value (FGF-7 [2]) of the same molecule?
The value was 1.35.

And the “FGF7, relative values of the expression levels based on the control as 1” value (FGF-7 [2]; listed as calcium lactobionate)?
The value was “induced an increase”.

Which results are given for `Nc1ncnc2c1ncn2[C@@H]1O[C@H](CO)[C@@H](O)[C@H]1O` [adenosine]?
expression of WNTSA (Wnt5a) compared to without treatment (Wnt5a; [6]): significant difference; expression of FGF7 compared to without treatment (FGF-7 [4]; [6]): significant difference; expression of VEGF compared to without treatment (VEGF [5]): significant difference

For `CC1(C)[C@@H](O[C@H]2O[C@H](C(=O)O)[C@@H](O)[C@H](O)[C@H]2O[C@@H]2O[C@H](C(=O)O)[C@@H](O)[C@H](O)[C@H]2O)CC[C@]2(C)[C@H]3C(=O)C=C4[C@@H]5C[C@@](C)(C(=O)O)CC[C@]5(C)CC[C@@]4(C)[C@]3(C)CC[C@@H]12` [glycyrrhizinate dipotassium, Glycyrrhizinate dipotassium], which “synergistic effect with POs-Ca (R) on expression of FGF7 and VEGF” value (FGF7 and VEGF) is on record?
Its value is “None”.

With “magnesium chloride hexahydrate [general magnesium]” as the molecule, how does the “expression of WNTSA” value (Wnt5a; [7]) read?
The value was “not observed”.

And the “expression of FGF7” value (FGF-7 [4]; [7])?
Its value is “not observed”.
